# Experimental data published in patent publication US20100047333A1, “Modified Peptides and Their Use for the Treatment of Autoimmune Diseases” (priority 2001, published 2010).
# Key:
# mice [1] = test: survival rate of mice after multiple administrations of peptide; type: in vivo
# Text: (§1) Other characteristics and advantages of the invention will become apparent from the example which follows relating to the preparation of the modified peptide and to the study of its activity against an autoimmune disease. Systemic lupus presents an easy clinical symptom to follow because of the large urinary protein excretion that accompanies the disorder that results from an associated renal condition, glomerulonephritis. Levels of protein secretion were followed to assess the effectiveness of the modified peptide in addressing the underlying autoimmune disorder.
# (§2) The specific peptide […] (SEQ ID NO: 1), which is a 21-amino acid sequence of the 70 kDa snRNP protein corresponding to residues 131-151, was synthesized in its phosphorylated form (in the 10 position—P10). This self-protein, which is normally present in each cell, is recognized by T-cells and antibodies from lupus patients and mice as an antigen toward which the immune system is reacting, generating a so-called autoimmune reaction.
# CD4+ T cells = test: production of IL-2 (interluekin-2) by CD4+ T cells; type: cell-based, mice
# Text: as §2
# mice [2] = test: urine protein excretion in treated mice; type: in vivo
# Text: as §1, §2
sequence,measurement,setting,value
"RIHMVYSKRSGKPRGYAFIEY (listed as Homo sapiens) [natural (non-phosphorylated) peptide, reference compound]",improvement in the survival rate (in words),"mice [1]; mice, after administration of the peptide",unable to improve significantly the survival rate
"RIHMVYSKRSGKPRGYAFIEY (lysine acetylation, position unspecified; listed as Homo sapiens) [acetylated peptide]",activity (preliminary data),"mice [1]; preliminary data, compared with the phosphorylated peptide P10",even stronger activity
RIHMVYSKRSGKPRGYAFIEY [P10],survival rate,"mice [1]; mice, after multiple administrations (similar to a vaccine), compared to 0%",55%
same,production of IL-2 (interluekin-2) by CD4+ T cells,CD4+ T cells,increased significantly
same,urine protein excretion,mice [2],reduced
